From US20030158199A1, “Novel compounds for inhibition of Tie-2” (KYLIX, B.V., priority 2002, published 2003)
pIC50: −log10 of the molar value. Structures can show the parent of a compound that is named as a salt.

How the values were obtained:
Format in all cases: biochemical
Tie-2 = target: T1, Tie-2 (Homo sapiens, UniProt Q02763); assay: RTK ELISA, recombinant kinase domain, Tie-2; conditions: GST-Tie2/Tek (aa 771-1124) expressed in baculovirus infected insect cells
T1 construct: GST-Tie2/Tek (aa 771-1124); GST (N); purchased ProQuinase, Freiburg; host or cells: baculovirus infected insect cells Sf9
T1 sequence (Q02763 771-1124): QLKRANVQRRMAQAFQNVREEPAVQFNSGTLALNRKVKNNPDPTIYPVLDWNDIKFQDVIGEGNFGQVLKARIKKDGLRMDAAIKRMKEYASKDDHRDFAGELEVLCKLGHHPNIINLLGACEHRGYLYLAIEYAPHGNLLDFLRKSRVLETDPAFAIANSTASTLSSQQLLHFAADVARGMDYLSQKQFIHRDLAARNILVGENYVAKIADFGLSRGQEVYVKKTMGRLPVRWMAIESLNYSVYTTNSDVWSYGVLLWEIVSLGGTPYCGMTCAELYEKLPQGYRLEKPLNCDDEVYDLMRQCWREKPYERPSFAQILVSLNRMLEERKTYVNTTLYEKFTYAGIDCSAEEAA
Description: (§1) Follwing IC50 values were determined in the RTK ELISA using recombinant kinase domains of receptor tyrosine kinases which were expressed in baculovirus infected insect cells.
(§2) Receptor Tyrosine Kinase Assay
(§3) The following in vitro assays are used to determine the ability of different compounds to inhibit the transfer of phosphate groups onto tyrosine residues of downstream substrates. The level of phosphorylation is measured by a monoclonal antibody which is specific for phosphorylated tyrosine residues in an enzyme-linked immunosorbent assay (ELISA).
(§4) The following recombinant kinases were expressed in baculovirus infected insect cells Sf9 and purchased from ProQuinase, Freiburg:
(§5) If not otherwise indicated all steps are performed at room temperature.
(§6) 1.) Coat wells of ELISA plate with […] Poly-Glu-Tyr 4:1 in 100 μl/well PBS buffer (137 mM NaCl, 3 mM KCl, 1.5 mM KH2PO4, 8.2 mM Na2HPO4) overnight at 4° C.
(§7) 2.) Wash 2 times for 5 min each with PBS+0.05% Tween20 […]
(§8) a) Add 5-30 ng/well kinase in 50 μl/well kinase buffer (100 mM HEPES pH 7.4, 100 mM NaCl, 0.1 mM Na3VO4) b) Add 25 μl/well compound (50 and 5 μM) in 5% DMSO c) Add 25 μl/well 100 μM ATP in 40 mM MnCl2
(§9) 4.) Wash 3 times for 5 min each with PBS+0.05% Tween20
(§10) 5.) Add anti phosphotyrosin antibody/HRP 1:10.000 in 100 μl/well PBS+0.05% Tween+0.1 BSA, incubate for 1 h
(§11) 6.) Wash 3 times for 5 min each with PBS+0.05% Tween20
(§12) 7.) Chemoluminescence reaction: a.) Premix 25 μl/well BM CLS Solution 1 with 0.25 μl/well BM CLS Solution 2 b.) Preincubate for 15 min […]
(§13) d.) Add 50 μl/well substrate solution to microtiter wells e.) Incubate for at least 1 min
(§14) 8.) Detect chemoluminescence signals in Tecan Genios reader

KDR = target: T2, KDR (Homo sapiens, UniProt P35968); assay: RTK ELISA, recombinant kinase domain, KDR; conditions: GST-KDR (aa807-1356) expressed in baculovirus infected insect cells
T2 construct: GST-KDR (aa807-1356); GST (N); purchased ProQuinase, Freiburg; host or cells: baculovirus infected insect cells Sf9
T2 sequence (P35968 807-1356): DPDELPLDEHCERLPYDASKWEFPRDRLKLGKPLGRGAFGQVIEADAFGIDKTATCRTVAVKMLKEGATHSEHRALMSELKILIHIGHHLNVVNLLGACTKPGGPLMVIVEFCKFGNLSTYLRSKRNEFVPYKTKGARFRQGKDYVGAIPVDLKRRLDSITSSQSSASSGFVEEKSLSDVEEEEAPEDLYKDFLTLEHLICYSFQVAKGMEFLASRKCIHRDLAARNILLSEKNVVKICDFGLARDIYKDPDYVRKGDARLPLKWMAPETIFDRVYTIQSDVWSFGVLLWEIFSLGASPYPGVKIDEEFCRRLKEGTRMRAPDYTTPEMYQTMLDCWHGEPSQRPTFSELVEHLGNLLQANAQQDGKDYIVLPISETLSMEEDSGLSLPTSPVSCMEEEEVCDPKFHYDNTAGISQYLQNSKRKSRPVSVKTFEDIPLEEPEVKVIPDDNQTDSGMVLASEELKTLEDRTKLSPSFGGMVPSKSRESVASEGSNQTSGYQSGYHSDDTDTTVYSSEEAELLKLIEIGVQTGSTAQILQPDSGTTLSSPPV
Description: as §1, §2, §3, §4, §5, §6, §7, §8, §9, §10, §11, §12, §13, §14

c-Met = target: T3, c-Met (Homo sapiens, UniProt P08581); assay: RTK ELISA, recombinant kinase domain, c-Met; conditions: GST-cMet (aa956-1390) expressed in baculovirus infected insect cells
T3 construct: GST-cMet (aa956-1390); GST (N); purchased ProQuinase, Freiburg; host or cells: baculovirus infected insect cells Sf9
T3 sequence (P08581 956-1390): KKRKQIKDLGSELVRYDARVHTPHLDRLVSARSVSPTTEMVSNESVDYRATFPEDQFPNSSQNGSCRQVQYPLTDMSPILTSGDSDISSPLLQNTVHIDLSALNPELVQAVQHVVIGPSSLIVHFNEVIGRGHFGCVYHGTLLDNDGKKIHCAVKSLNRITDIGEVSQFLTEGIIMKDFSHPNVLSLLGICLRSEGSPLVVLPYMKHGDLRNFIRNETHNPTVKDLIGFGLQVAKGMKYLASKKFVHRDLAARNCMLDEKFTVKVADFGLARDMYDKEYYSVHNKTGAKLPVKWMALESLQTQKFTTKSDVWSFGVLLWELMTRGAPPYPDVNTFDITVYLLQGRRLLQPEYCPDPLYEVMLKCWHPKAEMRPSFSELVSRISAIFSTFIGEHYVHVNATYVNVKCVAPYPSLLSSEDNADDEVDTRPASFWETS
Description: as §1, §2, §3, §4, §5, §6, §7, §8, §9, §10, §11, §12, §13, §14

CNc1nccs1 [Number 2, methyl-thiazol-2-yl-amine Hydrochloride]
pIC50 (Tie-2): < 4.30 | pIC50 (KDR): 5.30 | pIC50 (c-Met): < 4.30

c1ccc(Nc2nccs2)cc1 [Number 3, phenyl-thiazol-2-yl-amine Hydrochloride]
pIC50 (KDR): 5.46 | pIC50 (c-Met): < 4.30

c1cncc(Nc2nccs2)c1 [Number 4, pyridin-3-yl-thiazol-2-yl-amine Hydrochloride]
pIC50 (Tie-2): < 4.30 | pIC50 (KDR): 5.30 | pIC50 (c-Met): < 4.60

Nc1nc(-c2ccc(N3CCCC3)cc2)cs1 [Number 5, 4-(4-pyrrolidin-1-yl-phenyl)-thiazol-2-ylamine Hydrobromide]
pIC50 (Tie-2): 5.60 | pIC50 (KDR): 5.30 | pIC50 (c-Met): 5.30

Nc1nc(-c2ccc(N3CCCC3)cc2)co1 [Number 6, 4-(4-pyrrolidin-1-yl-phenyl)-oxazol-2-ylamine Hydrobromide]
pIC50 (Tie-2): 5.30 | pIC50 (KDR): < 4.60 | pIC50 (c-Met): < 4.30

CNc1nc(-c2ccc(N3CCCC3)cc2)cs1 [Number 7, methyl-[4-(4-pyrrolidin-1-yl-phenyl)-thiazol-2-yl]-amine Hydrobromide]
pIC50 (Tie-2): 5.52 | pIC50 (KDR): 5.15 | pIC50 (c-Met): < 4.30

c1ccc(Nc2nc(-c3ccc(N4CCCC4)cc3)cs2)cc1 [Number 8, phenyl-[4-(4-pyrrolidin-1-yl-phenyl)-thiazol-2-yl]-amine Hydrobromide]
pIC50 (Tie-2): 5.30 | pIC50 (KDR): 5.60 | pIC50 (c-Met): < 4.60

CN(c1ccccc1)c1nc(-c2ccc(N3CCCC3)cc2)cs1 [Number 9, methyl-phenyl-[4-(4-pyrrolidin-1-yl-phenyl)-thiazol-2-yl]-amine Hydrobromide]
pIC50 (Tie-2): 5.60 | pIC50 (KDR): < 4.60 | pIC50 (c-Met): < 4.60

c1ccc(CNc2nc(-c3ccc(N4CCCC4)cc3)cs2)cc1 [Number 10, benzyl-[4-(4-pyrrolidin-1-yl-phenyl)-thiazol-2-yl]-amine Hydrobromide]
pIC50 (Tie-2): 5.30 | pIC50 (KDR): < 4.30 | pIC50 (c-Met): < 4.30

c1ccc(CCNc2nc(-c3ccc(N4CCCC4)cc3)cs2)cc1 [Number 11, phenylethyl-[4-(4-pyrrolidin-1-yl-phenyl)-thiazol-2-yl]-amine Hydrobromide]
pIC50 (Tie-2): < 4.30

c1ccc(Nc2nc(-c3ccc(N4CCCC4)cc3)cs2)nc1 [Number 12, Hydrobromide]
pIC50 (Tie-2): < 4.30

c1cncc(Nc2nc(-c3ccc(N4CCCC4)cc3)cs2)c1 [Number 13, Hydrobromide]
pIC50 (Tie-2): 6.00 | pIC50 (KDR): 5.70 | pIC50 (c-Met): < 5.00

c1cncc(-c2nc(-c3ccc(N4CCCC4)cc3)co2)c1 [Number 14, 3-[4-(4-pyrrolidin-1-yl-phenyl)-oxazol-2-yl]-pyridine Hydrobromide]
pIC50 (Tie-2): 5.30 | pIC50 (KDR): < 4.30 | pIC50 (c-Met): < 4.60

c1cc(Nc2nc(-c3ccc(N4CCCC4)cc3)cs2)ccn1 [Number 15, pyridin-4-yl-[4-(4-pyrrolidin-1-yl-phenyl)-thiazol-2-yl]-amine Hydrobromide]
pIC50 (Tie-2): 6.00 | pIC50 (KDR): 5.30 | pIC50 (c-Met): < 5.00

c1cc(-c2nc(-c3ccc(N4CCCC4)cc3)co2)ccn1 [Number 16, 4-[4-(4-pyrzolidin-1-yl-phenyl)-oxazol-2-yl]-pyridine Hydrobromide]
pIC50 (Tie-2): < 4.30 | pIC50 (KDR): < 4.30 | pIC50 (c-Met): < 4.30

O=[N+]([O-])c1ccc(Nc2nc(-c3ccc(N4CCCC4)cc3)cs2)cc1 [Number 17, Dihydrobromide]
pIC50 (Tie-2): 5.70 | pIC50 (KDR): < 5.00 | pIC50 (c-Met): < 4.60

c1cc(Nc2nc(-c3ccc(N4CCCC4)cc3)cs2)ccc1Nc1nc(-c2ccc(N3CCCC3)cc2)cs1 [Number 18, N,N′-bis-[4-(4-pyrrolidin-1-yl-phenyl)-thiazol-2-yl]-benzene-1,4-diamine Dihydrobromide]
pIC50 (Tie-2): < 5.00 | pIC50 (KDR): < 5.00 | pIC50 (c-Met): < 4.30

FC(F)(F)c1cccc(Nc2nc(-c3ccc(N4CCCC4)cc3)cs2)c1 [Number 19, [4-(4-pyrrolidin-1-yl-phenyl)-thiazol-2-yl]-(3-trifluoromethyl-phenyl)-amine Hydrobromide]
pIC50 (Tie-2): 5.70 | pIC50 (KDR): 5.70 | pIC50 (c-Met): < 4.30

O=C(O)c1ccc(Nc2nc(-c3ccc(N4CCCC4)cc3)cs2)cc1 [Number 20, 4-[4-(4-pyrrolidin-1-yl-phenyl)-thiazol-2-ylamino]-benzoic Acid Hydrobromide]
pIC50 (Tie-2): > 6.00 | pIC50 (KDR): 6.00 | pIC50 (c-Met): < 5.00

Cc1nc(-c2ccc(N3CCCC3)cc2)cs1 [Number 21, 2-methyl-4-(4-pyrrolidin-1-yl-phenyl)-thiazole Hydrobromide]
pIC50 (Tie-2): 5.60 | pIC50 (c-Met): < 4.30

CCN(CC)c1ccc(-c2csc(N)n2)cc1 [Number 23, 4-(4-diethylamino-phenyl)-thiazol-2-ylamine Hydrobromide]
pIC50 (Tie-2): 5.30 | pIC50 (KDR): 5.70 | pIC50 (c-Met): < 4.30

CCN(CC)c1ccc(-c2coc(N)n2)cc1 [Number 24, 4-(4-diethylamino-phenyl)-oxazol-2-ylamine Hydrobromide]
pIC50 (Tie-2): 5.30 | pIC50 (KDR): 5.82 | pIC50 (c-Met): < 4.30

CCN(CC)c1ccc(-c2csc(NC)n2)cc1 [Number 25, [4-(4-diethylamino-phenyl)-thiazol-2-yl]-methyl-amine Hydrobromide]
pIC50 (Tie-2): 6.00 | pIC50 (KDR): 5.30 | pIC50 (c-Met): < 4.30

CCN(CC)c1ccc(-c2csc(Nc3ccccc3)n2)cc1 [Number 26, [4-(4-Diethylamino-phenyl)-thiazol-2-yl]-phenyl-amine Hydrobromide]
pIC50 (Tie-2): 5.70 | pIC50 (KDR): 5.70 | pIC50 (c-Met): < 4.60

CCN(CC)c1ccc(-c2csc(N(C)c3ccccc3)n2)cc1 [Number 27, [4-(4-diethylamino-phenyl)-thiazol-2-yl]-methyl-phenyl-amine Hydrobromide]
pIC50 (Tie-2): < 4.30 | pIC50 (KDR): < 4.30 | pIC50 (c-Met): < 4.30

CCN(CC)c1ccc(-c2csc(NCc3ccccc3)n2)cc1 [Number 28, benzyl-[4-(4-diethylamino-phenyl)-thiazol-2-yl]-amine Hydrobromide]
pIC50 (Tie-2): < 4.30 | pIC50 (KDR): < 4.30 | pIC50 (c-Met): < 4.30

CCN(CC)c1ccc(-c2csc(Nc3ccccn3)n2)cc1 [Number 29, [4-(4-diethylamino-phenyl)-thiazol-2-yl)-pyridin-2-yl-amine Hydrobromide]
pIC50 (Tie-2): < 4.30 | pIC50 (KDR): < 4.30 | pIC50 (c-Met): < 4.30

CCN(CC)c1ccc(-c2csc(Nc3cccnc3)n2)cc1 [Number 30]
pIC50 (Tie-2): 6.10 | pIC50 (KDR): 5.52 | pIC50 (c-Met): < 4.30

CCN(CC)c1ccc(-c2csc(Nc3cccc(C(F)(F)F)c3)n2)cc1 [Number 32, [4-(4-diethylamino-phenyl)-thiazol-2-yl-(3-trifluoromethyl-phenyl)-amine Hydrobromide]
pIC50 (Tie-2): 5.52 | pIC50 (KDR): 5.30 | pIC50 (c-Met): < 4.30

CCN(CC)c1ccc(-c2csc(C)n2)cc1 [Number 33, diethyl-[4-(2-methyl-thiazol-4-yl)-phenyl]-amine Hydrobromide]
pIC50 (Tie-2): 5.30 | pIC50 (KDR): 5.30 | pIC50 (c-Met): < 4.30

CNc1nc(-c2cnn(-c3ccccc3)c2C)cs1 [Number 34, methyl-[4-(5-methyl-1-phenyl-1H-pyrazol-4-yl)-thiazol-2-yl]-amine Hydrochloride]
pIC50 (Tie-2): 5.82 | pIC50 (KDR): 5.82 | pIC50 (c-Met): < 4.30

c1ccc(CCNc2nc(-c3ccccn3)cs2)cc1 [Number 35, phenylethyl-(4-pyridin-2-yl-thiazol-2-yl)-amine Hydrobromide]
pIC50 (Tie-2): 6.00 | pIC50 (KDR): 6.00 | pIC50 (c-Met): 5.70

CNc1nc(-c2ccc(-c3ccccn3)s2)cs1 [Number 36, methyl-[4-(5-pyridin-2-yl-thiophen-2-yl)-thiazol-2-yl]-amine Hydrobromide]
pIC50 (Tie-2): < 4.70 | pIC50 (KDR): < 5.00 | pIC50 (c-Met): < 4.30

c1ccc(-c2ccc(-c3csc(Nc4cccnc4)n3)s2)nc1 [Number 37, pyridin-3-yl-[(4-(5-pyridin-2-yl-thiophen-2-yl)-thiazol-2-yl]-amine Hydrobromide]
pIC50 (Tie-2): 5.60 | pIC50 (KDR): < 4.30 | pIC50 (c-Met): < 4.30
